Legend:
[1] = Physical stability test (crystal formation or precipitation after 24 hours at room temperature and 7 days at about 4 °C); type: physicochemical; settings: for Results from stability test: aqueous solution, 7 days at about 4 °C
Procedure: The solubility enhancing effect of the combination of niacinamide and hydroxyalkyl urea in increasing the solubility of metronidazole in the aqueous compositions is evaluated by physical stability of the prepared compositions.
Therefore, the compositions in accordance with the present invention are subject to a physical stability test. The protocol for the stability test is as follows: metronidazole and the solubility enhancing agents are combined with water either at room temperature or elevated temperature while stirring until dissolved. The solutions are permitted to cool to room temperature. Customary auxiliaries and additives may be added to the aqueous solutions containing solubilized metronidazole and solubility enhancing agents. The solutions may be gelled by using the suitable gelling agents. The compositions both in gel or solution form are then packaged in clear glass vials and sealed. The vials are kept at room temperature for 24 hours and monitored for crystal formation or precipitation. After 24 hours, the vials are placed in a refrigerator maintained at a temperature of about 4° C. for 7 days. After 7 days, the vials are removed from the refrigerator. Evidence of crystal formation or precipitation in the compositions is examined.
Each formulation was prepared by combining niacinamide and metronidazole in water (q.s 100%). The mixture was kept at a temperature of about 45° C. while stirring until dissolved. The solutions were permitted to cool to room temperature, packaged and sealed in glass vials. The stability tests described in Example 1 were performed and the test results were recorded.
Each formulation was prepared by combining N-2-hydroxyethyl urea and metronidazole in water (q.s. 100%). The mixture was kept at a temperature of about 45° C. while stirring until dissolved. The solutions were permitted to cool to room temperature, packaged and sealed in glass vials. The stability tests described in Example 1 were performed and the test results were recorded.
Each formulation was prepared by combining N-2-hydroxyethyl urea, niacinamide, and metronidazole in water (q.s. 100%). N-2-hydroxyethyl urea is available from a number of commercial sources, for example, Aldrich Chemical Company (Milwaukee, Wis.). The mixture was kept either at room temperature or at a temperature of about 45° C. while stirring until dissolved. The solutions were permitted to cool to room temperature, packaged and sealed in glass vials. The stability tests described in Example 1 were performed and the test results were recorded.

[2] = at 25 °C; cited from earlier work

Structure (SMILES): Cc1ncc([N+](=O)[O-])n1CCO [Metronidazole, 1-(2-hydroxyethyl)-2-methyl-5-nitroimidazole]
- Results from stability test ([1]; 1.0% metronidazole, 1.0% N-2-hydroxyethyl urea, 3.0% niacinamide): Crystals
- Results from stability test ([1]; 1.0% metronidazole, 1.0% N-2-hydroxyethyl urea, 4.0% niacinamide): Clear
- Results from stability test ([1]; 1.0% metronidazole, 2% niacinamide): Crystals formed
- Results from stability test ([1]; 1.0% metronidazole, 3.0% N-2-hydroxyethyl urea, 3.0% niacinamide): Clear
- Results from stability test ([1]; 1.0% metronidazole, 3% niacinamide): Crystals formed
- Results from stability test ([1]; 1.0% metronidazole, 4.0% N-2-hydroxyethyl urea, 1.0% niacinamide): Crystals
- Results from stability test ([1]; 1.0% metronidazole, 4% niacinamide): Crystals formed
- Results from stability test ([1]; 1.0% metronidazole, 5.0% N-2-hydroxyethyl urea, 1.0% niacinamide): Clear
- Results from stability test ([1]; 1.0% metronidazole, 5.0% N-2-hydroxyethyl urea, 1.0% niacinamide, listed as metronidazole): stable
- Results from stability test ([1]; 1.0% metronidazole, 5.0% N-2-hydroxyethyl urea, 2.0% niacinamide): Clear
- Results from stability test ([1]; 1.0% metronidazole, 5% niacinamide): Clear
- Results from stability test ([1]; 1.0% metronidazole, 13% N-2-hydroxyethyl urea): Crystals formed
- Results from stability test ([1]; 1.0% metronidazole, 14% N-2-hydroxyethyl urea): Crystals formed
- Results from stability test ([1]; 1.0% metronidazole, 15% N-2-hydroxyethyl urea): Crystals formed
- Results from stability test ([1]; 1.0% metronidazole, 16% N-2-hydroxyethyl urea): Clear
- Results from stability test ([1]; 1.2% metronidazole, 10.0% N-2-hydroxyethyl urea, 2.0% niacinamide): Clear

Structure (SMILES): NC(=O)NCCO [N-2-hydroxyethyl urea]
- concentration of N-2-hydroxyethyl urea required to obtain a stable aqueous solution of 1.0% metronidazole ([1]; N-2-hydroxyethyl urea as the only solubility enhancing agent): about 16%
- concentration of N-2-hydroxyethyl urea needed to obtain a stable aqueous solution of 1.0% metronidazole ([1]; concentration of niacinamide is 1.0%): ≥ 5.0%

Structure (SMILES): NC(=O)c1cccnc1 [niacinamide]
- water solubility limit [2]: about 50 % by weight
- concentration of niacinamide needed to obtain a stable aqueous solution of 1.0% metronidazole ([1]; concentration of N-2-hydroxyethyl urea is 1.0%): about 4.0%
- N-2-hydroxyethyl urea functionally equivalent to 1% niacinamide in inducing the solubility enhancing effect ([1]; from Examples 2 and 3, 1.0% metronidazole): about 3.2%
- concentration of niacinamide required to obtain a stable aqueous solution of 1.0% metronidazole ([1]; niacinamide as the only solubility enhancing agent): about 5%
